The values that follow come from US10980900B2, “Imaging of meningiomas using phenylbenzothiazole, stilbene, or biphenylalkyne derivatives” (MAYO FOUNDATION FOR MEDICAL EDUCATION AND RESEARCH, priority 2010, dated 2021).

Entries after “also recorded” stand apart in the source; their conditions may differ.

Assay [1] relates to other intracranial tumors (schwannoma, metastasis) tissue sections. Kind of assay: Fluorescent 6-CN-PiB staining of other intracranial tumor tissue sections. It is filed as binding, human. As to conditions: some other tumors, different staining pattern. The text has this: (§1) The Department of Pathology, Mayo Clinic Rochester Tumor Tissue Registry, contains tumor samples procured by autopsy and surgery. Meningiomas, brain metastases and other tumors were identified by searching CoPath, a Mayo Clinic electronic pathology database of tumors collected since 1982. Tumor type was confirmed by viewing H&E stained slides under a light microscope.
Fresh cut 5 μm thick sections were used. Each staining run included normal brain and Alzheimer diseased brain as controls. Fluorescent tissue staining and microscopy was performed similar to methods previously described at Ikonomovic M D, Klunk W E, Abrahamson E E, et al., “Post-mortem correlates of in vivo PiB-PET amyloid imaging in a typical case of Alzheimer's disease”, Brain: A Journal Of Neurology 2008; 131:1630-45. Meningioma and other brain tumor sections were stained with 100 nM CN-PiB, 100 nM of unlabeled PiB or with saline alone as a negative control. The staining protocol was as follows: deparaffinization and rehydration, 0.25% KMnO4 incubation, water wash, 1% K2S2O5/1% Oxalic Acid incubation, water wash, PBS wash, 6-CN-PiB/PiB/saline incubation, PBS wash, NaCl, K2HPO4, and KH2PO4 incubation, water wash, mount coverslip, and storage at 4° C. in the dark until imaged. Slides were imaged within five days of staining. […]

The subject of assay [2] is meningioma tissue sections. Kind of assay: Fluorescent PiB / 6-CN-PiB staining of meningioma tissue sections. It is filed as binding, human.
Text: as §1
Fresh cut 5 μm thick sections were used. Each staining run included normal brain and Alzheimer diseased brain as controls. Fluorescent tissue staining and microscopy was performed similar to methods previously described at Ikonomovic M D, Klunk W E, Abrahamson E E, et al., “Post-mortem correlates of in vivo PiB-PET amyloid imaging in a typical case of Alzheimer's disease”, Brain: A Journal Of Neurology 2008; 131:1630-45. Meningioma and other brain tumor sections were stained with 100 nM CN-PiB, 100 nM of unlabeled PiB or with saline alone as a negative control. The staining protocol was as follows: deparaffinization and rehydration, 0.25% KMnO4 incubation, water wash, 1% K2S2O5/1% Oxalic Acid incubation, water wash, PBS wash, 6-CN-PiB/PiB/saline incubation, PBS wash, NaCl, K2HPO4, and KH2PO4 incubation, water wash, mount coverslip, and storage at 4° C. in the dark until imaged. Slides were imaged within five days of staining.
Tissue stain images were obtained on a Zeiss 510 confocal microscope with excitation at 405 nm, a 420-480 bandpass filter, and the laser set at 15% power. Images were obtained with a C-Apochromat 40×/1.2 W lens.

The subject of assay [3] is meningiomas. The experiment in a line: PiB PET/CT imaging of meningiomas in patients. In kind it is in vivo, human. The source says:
(§2) An Alzheimer's imaging database of two hundred forty-one patients was reviewed. […] All patients had been imaged by at least one MRI, as well as by FDG-PET/CT and PET/CT using the compound of formula (V). MRI reports of all patients were reviewed for possible meningiomas and other tumors. […] The diagnostic confidence of the radiologists interpreting the studies varied slightly, depending on factors such as tumor location and previous imaging. […] Tumors smaller than 7 millimeters are generally considered too small to be evaluated by PET or PET/CT. This is an excepted limitation of PET or PET/CT as a modality. […] None of the meningiomas in the series would be classified as atypical or aggressive based on MRI or CT imaging. One presumed extracranial schwannoma was seen, showing mild uptake on FDG-PET/CT, but no uptake on PET/CT using the compound of formula (V).
(§3) The radiologic interpretations of MRI, CT and FDG PET/CT scans from a population of 834 people who participated in the population-based Mayo Clinic Study of Aging (MCSA) from March 2006 through September 2011 were reviewed for the presence of tumors or other brain lesions. (See, Kantarci K, Lowe V, Przybelski S A, et al., “Magnetic resonance spectroscopy, {beta}-amyloid load, and cognition in a population-based sample of cognitively normal older adults”, Neurology 2011; 77:951-8; and Roberts R O, Geda Y E, Knopman D S, et al., “The Mayo Clinic Study of Aging: design and sampling, participation, baseline measures and sample characteristics”, Neuroepidemiology 2008; 30:58-69.) Participants were randomly selected for recruitment in the MCSA from a population of older adult residents of Olmsted County, Minn., USA. Those with neurological, psychological or systemic illnesses were not excluded. Individuals with dementia, or those unable to be imaged for medical reasons were excluded. All patients were imaged with C11-PiB PET/CT, F18-FDG PET/CT and non-contrast MRI at least once as part of the study. Any additional patient imaging and clinical history was then reviewed.
Tumors found in any of the subjects were then categorized as possible meningiomas or non-meningiomas based on the reading of the reporting neuroradiologist. Possible meningiomas were further reviewed as a group. A more strict set of criteria were applied to select a subset of the possible meningiomas that were designated “high-likelihood meningiomas” for further analysis and were defined by (1) tumors that were confirmed to be enhancing on diagnostic MRI (obtained separately for clinical purposes) and (2) tumors that had greater than two years of follow-up imaging confirming no growth or slow growth (1-2 mm per year). When the lead diagnosis of the identified tumor was metastasis, the diagnosis was confirmed by biopsy or autopsy. All tumors smaller than 5 mm thick were excluded, given they fall below the generally accepted lower limits of PET/CT resolution.
PET imaging was performed as part of the Mayo Clinic Study of Aging as previously described. (See Kantarci K, Lowe V, Przybelski S A, et al., “Magnetic resonance spectroscopy, {beta}-amyloid load, and cognition in a population-based sample of cognitively normal older adults”, Neurology 2011; 77:951-8.) PiB PET/CT, then FDG PET/CT were performed on the same day. PET/CT imaging was performed on a 690XT or DRX PET/CT tomograph (GE Healthcare). The PET sinograms were reconstructed using a fully-3D OSEM algorithm into a 30 cm field of view; the pixel size was 1.2 mm and the slice thickness was 3.27 mm (DRX) or 1.96 mm (690XT). CT imaging was obtained immediately prior to PET acquisition and used for attenuation correction. Cerebral PiB retention, a marker of amyloid deposition, was measured as previously described. (See Kantarci K, Lowe V, Przybelski S A, et al. “Magnetic resonance spectroscopy, {beta}-amyloid load, and cognition in a population-based sample of cognitively normal older adults”, Neurology 2011; 77:951-8.) […]

Assay [4] deals with non-meningioma tumors and lesions. Kind of assay: PiB PET/CT imaging of non-meningioma tumors and lesions in patients. In kind it is in vivo, human.
Text: as §2, §3
Tumors found in any of the subjects were then categorized as possible meningiomas or non-meningiomas based on the reading of the reporting neuroradiologist. Possible meningiomas were further reviewed as a group. […]
PET imaging was performed as part of the Mayo Clinic Study of Aging as previously described. […] Cerebral PiB retention, a marker of amyloid deposition, was measured as previously described. […]

Assay [5] can be described thus: PiB PET/CT activity in normal tissues near the tumors. It is filed as in vivo, human.
Text: as §3
PET imaging was performed as part of the Mayo Clinic Study of Aging as previously described. (See Kantarci K, Lowe V, Przybelski S A, et al., “Magnetic resonance spectroscopy, {beta}-amyloid load, and cognition in a population-based sample of cognitively normal older adults”, Neurology 2011; 77:951-8.) PiB PET/CT, then FDG PET/CT were performed on the same day. PET/CT imaging was performed on a 690XT or DRX PET/CT tomograph (GE Healthcare). The PET sinograms were reconstructed using a fully-3D OSEM algorithm into a 30 cm field of view; the pixel size was 1.2 mm and the slice thickness was 3.27 mm (DRX) or 1.96 mm (690XT). CT imaging was obtained immediately prior to PET acquisition and used for attenuation correction. Cerebral PiB retention, a marker of amyloid deposition, was measured as previously described. […]

In assay [6] the test system is meningiomas. The experiment in a line: FDG PET/CT imaging of meningiomas in patients. In kind it is in vivo, human.
Text: (§4) An Alzheimer's imaging database of two hundred forty-one patients was reviewed. […] MRI reports of all patients were reviewed for possible meningiomas and other tumors. […] Tumors smaller than 7 millimeters are generally considered too small to be evaluated by PET or PET/CT.
as §3
(§5) PET imaging was performed as part of the Mayo Clinic Study of Aging as previously described. (See Kantarci K, Lowe V, Przybelski S A, et al., “Magnetic resonance spectroscopy, {beta}-amyloid load, and cognition in a population-based sample of cognitively normal older adults”, Neurology 2011; 77:951-8.) PiB PET/CT, then FDG PET/CT were performed on the same day. PET/CT imaging was performed on a 690XT or DRX PET/CT tomograph (GE Healthcare). […] Cerebral PiB retention, a marker of amyloid deposition, was measured as previously described. […]

The subject of assay [7] is non-meningioma tumors. The experiment in a line: FDG PET/CT imaging of non-meningioma tumors in patients. It is filed as in vivo, human.
Text: as §4, §3, §5

The mark [8] stands for this setting: meningiomas 5 mm and thicker vs all other tumors in the 834 patient population.

In the case of `CNc1ccc(-c2nc3ccc(C#N)cc3s2)cc1` [Formula 6-CN-PiB], the 6-CN-PiB binding entry in assay [1] was “Moderate”. Further, the fluorescent staining entry in assay [2] (WHO grade I meningothelial meningioma (FIG. 6 Panel D), 100 nM) was “positively; also recorded: intense fluorescence”. For the same compound, the “staining brightness vs other intracranial tumors” value in assay [2] (all meningiomas (n=7) vs other intracranial tumors (n=6)) was “qualitatively brighter”.

Consider `[11CH3]Nc1ccc(-c2nc3ccc(O)cc3s2)cc1` [Formula (V), [N-Methyl-^11C]2-(4′-methylaminophenyl)-6-hydroxybenzothiazole], for which the “SUVmax (by body weight), range” value in assay [3] (16 high-likelihood meningiomas, PiB PET/CT) is 1.4-3.6. Besides, in assay [3] (Example 3: one patient imaged two times, many months in between), the “result on repeat PET/CT imaging” value is given as “same positive results”. The “activity at the meningioma on PET and CT images” value in assay [3] (Patient #1, mass along right tentorium cerebelli (FIG. 1)) is on record as “intense activity”; in assay [3] (Patient #4, mass along tuberculum sellae and planum sphenoidale (FIG. 2)), “intense activity”. Besides, in assay [3] (all 16 high-likelihood meningiomas), the “result on PiB PET/CT imaging” value is “clearly diagnostically positive”. Further, the “PiB activity relative to normal adjacent tissues” value in assay [3] (all 16 meningiomas identified by strict imaging criteria) is “greater than normal adjacent tissues”. Moreover, the “sensitivity of PiB PET/CT for meningiomas” value in assay [3] (setting [8]) was determined as 100%. In addition, the “specificity of PiB PET/CT for meningiomas” value in assay [3] (setting [8]) is given as 100%. The “SUVmax of meningioma on repeat imaging” value in assay [3] (two patients imaged with PiB PET/CT more than once) is recorded as “stable or increasing”. Also, in assay [4] (all other intracranial tumors imaged (metastases, pituitary macroadenomas, schwannomas, ependymoma)), the “PiB activity relative to normal adjacent tissue” value is “equal or less than normal adjacent tissue”. In addition, the “result on PiB PET/CT” value in assay [4] (both intracranial metastases (FIG. 4), pathologically confirmed) is “negative”. For the same compound, the “result on research PiB PET/CT” value in assay [4] (melanoma metastasis case) was “negative”. The PiB activity entry in assay [4] (non-tumorous lesions (strokes, arachnoid cysts, multiple sclerosis lesions)) is given as “only trace”. In addition, the “average PiB activity, SUVmax” value in assay [5] (nearby normal bone) was 0.6; in assay [5] (nearby normal grey matter), 1.1. Also, the “average background PiB activity, SUVmax” value in assay [5] (surrounding cerebrospinal fluid) is on record as 0.2. In assay [2] (tissue sections from meningiomas, 100 nM unlabeled PiB), the “staining of tissue sections” value is on record as “brightly positive”.

Regarding Fluorodeoxyglucose [FDG], the FDG activity result is given as “only trace” in assay [6] (2.6 cm thick meningioma of right tentorium (FIG. 3)) and “moderate to high” in assay [6] (seven of the 16 high-likelihood meningiomas). For the same compound, the “FDG PET activity” value in assay [6] (meningioma in FIG. 4 panels G-I) was “increased”; in assay [7] (melanoma and small cell lung cancer metastases (FIG. 4)), “increased”. In addition, the “result on FDG PET/CT” value is “positive” in assay [7] (melanoma metastasis case, initial imaging) and “positive” in assay [7] (pituitary macroadenoma (FIG. 5 Panel B)).
